Measurements reported in publication PMC5289826 (PLoS ONE, 2017).

Tests used:
[1] = biological target: T1, recombinant human 11β-HSD1 (Homo sapiens, UniProt P28845); test: 11β-HSD1 enzyme activity in cell lysates (cortisone to cortisol, radiolabeled tracer, TLC); type: biochemical; details: for 11β-HSD1 Residual activity, % of control at 100 nM: 100 nM compound; for 11β-HSD1 Residual activity, % of control at 100 nM / 11β-HSD1 Residual activity, % of control at 1 μM: lysates of HEK-293 cells, 200 nM cortisone, mean of three experiments; for activity towards 11β-HSD1, effect of substituent (in words): SAR comparison within the series; for 11β-HSD1 Residual activity, % of control at 1 μM: 1 μM compound
T1 construct: expressed in transfected cells
Method: (§1) Human embryonic kidney (HEK-293) cells either stably expressing human 11β-HSD1 and H6PDH (HHH7 clone, [38]) or 11β-HSD2 (AT8 clone, [39]), or transiently expressing human 17β-HSD1 or 17β-HSD2, were cultivated in Dulbecco’s modified Eagle medium (DMEM) containing 4.5 g/L glucose, 10% fetal bovine serum, 100 U/mL penicillin, 0.1 mg/mL streptomycin, 1 × MEM nonessential amino acids, and 10 mM HEPES buffer, pH 7.4. Cells were washed with phosphate-buffered saline (PBS), centrifuged for 4 min at 150 × g, and the cell pellets were snap frozen on dry ice and stored at −80°C until further use.
(§2) Cell lysates were resuspended in TS2 buffer (100 mM NaCl, 1 mM EGTA, 1 mM EDTA, 1 mM MgCl2, 250 mM sucrose, 20 mM Tris-HCl, pH 7.4), followed by sonication at 4°C using a Hielscher UP50H ultrasonic processor (0.3 cycle, 20 amplitude %, 20 impulses; Hielscher Ultrasonics GmbH, Teltow Germany). Cell lysates, reaction mixture, and either vehicle (DMSO) or inhibitor were incubated for 10 min at 37°C in a final volume of 22.2 μL. The solvent concentration was 0.1%. […] 11β-HSD2 activity was measured in the presence of 50 nM cortisol and 500 μM NAD^+. An amount of 50 nCi of radiolabeled tracer substrate was included in the experiments. […] The bands of the corresponding steroids were excised, followed by scintillation counting and calculation of the amount of substrate conversion. Data were obtained from at least three independent measurements. Glycyrrhetinic acid (CTRL 1) was used as positive control for 11β-HSD1 and 11β-HSD2 inhibition, apigenin (CTRL 2) for 17β-HSD1, and compound 22 from Vuorinen et al. [40](CTRL 3) for 17β-HSD2 inhibition.

[2] = test system: T2, recombinant human 11β-HSD2; test: 11β-HSD2 enzyme activity in cell lysates (cortisol to cortisone); type: biochemical; details: 1 μM compound; lysates of HEK-293 cells; 50 nM cortisol
T2 construct: expressed in transfected cells
Method: as §1, §2

T1 sequence (P28845 whole entry): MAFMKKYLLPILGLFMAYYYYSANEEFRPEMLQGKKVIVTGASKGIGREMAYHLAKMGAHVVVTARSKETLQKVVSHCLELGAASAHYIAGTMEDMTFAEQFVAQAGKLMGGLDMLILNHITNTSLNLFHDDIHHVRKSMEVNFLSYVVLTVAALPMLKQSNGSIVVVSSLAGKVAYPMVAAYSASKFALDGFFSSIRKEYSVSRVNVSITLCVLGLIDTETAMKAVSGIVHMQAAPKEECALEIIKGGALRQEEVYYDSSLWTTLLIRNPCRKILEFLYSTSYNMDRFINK

| 11β-HSD1 Residual activity, % of control at 100 nM [1] | activity towards 11β-HSD1, effect of substituent (in words) ([1]; cell lysates) | 11β-HSD1 Residual activity, % of control at 1 μM [1] | IC50 [1] | activity towards 11β-HSD1 (in words) ([1]; at 1 μM, cell lysates) | SMILES | 11β-HSD2 Residual activity, % of control at 1 μM [2] |
| --- | --- | --- | --- | --- | --- | --- |
| 69 % of control | lower activity |  |  |  | Cc1ccc(-c2cccc(C(=O)N3CCCCCC3)c2)cc1C [11e, Azepan-1-yl(3’,4’-dimethyl-[1,1’-biphenyl]-3-yl)methanone] | > 90 % of control |
| 60 % of control |  | 3 % of control | 47.2 nM |  | Cc1ccc(-c2cccc(C(=O)N3CCCC(C)(C)C3)c2)cc1F [3a, (3,3-Dimethylpiperidin-1-yl)(3’-fluoro-4’-methyl-[1,1’-biphenyl]-3-yl)methanone] | > 90 % of control |
| 30 % of control |  |  | 46 nM |  | Cc1ccc(-c2cccc(C(=O)N3CCCCCC3)c2)cn1 [2e, Azepan-1-yl-(3-(6-methylpyridin-3-yl)phenyl)methanone] | > 90 % of control |
| 52 % of control |  | 1 % of control | 47.7 nM |  | Cc1ccc(-c2cccc(C(=O)N3CCC(C)CC3)c2)cc1 [1b, (4’-Methyl-[1,1’-biphenyl]-3-yl)(4-methylpiperidin-1-yl)methanone] | > 90 % of control |

More lines, now with the values behind:

| SMILES | 11β-HSD1 Residual activity, % of control at 100 nM [1] | activity towards 11β-HSD1, effect of substituent (in words) ([1]; cell lysates) | 11β-HSD1 Residual activity, % of control at 1 μM [1] | IC50 [1] | activity towards 11β-HSD1 (in words) ([1]; at 1 μM, cell lysates) | 11β-HSD2 Residual activity, % of control at 1 μM [2] |
| --- | --- | --- | --- | --- | --- | --- |
| CC1CCN(C(=O)c2cccc(-c3cccc(O)c3)c2)CC1 [8b, (3’-Hydroxy-[1,1’-biphenyl]-3-yl)(4-methylpiperidin-1-yl)methanone] | 70 % of control | lower activity | 8 % of control |  |  | > 90 % of control |
| Cc1ccc(-c2cccc(C(=O)N3CCOC(C)(C)C3)c2)cc1F [3c, (2,2-Dimethylmorpholino)(3’-fluoro-4’-methyl-[1,1’-biphenyl]-3-yl)methanone] | 14 % of control |  | 1 % of control | 27.9 nM |  |  |
| Cc1ccc(-c2cccc(C(=O)N3CCC(C)CC3)c2)cc1F [3b] | 44 % of control |  | 1 % of control | 53.8 nM |  | > 90 % of control |
| CC1CCN(C(=O)c2cccc(-c3ccc(F)cc3)c2)CC1 [4b, (4’-Fluoro-[1,1’-biphenyl]-3-yl)(4-methylpiperidin-1-yl)methanone] | 43 % of control |  | 4 % of control |  |  | > 90 % of control |
| CC1CCN(C(=O)c2cccc(-c3ccccc3Cl)c2)CC1 [6b, (2’-Chloro-[1,1’-biphenyl]-3-yl)(4-methylpiperidin-1-yl)methanone] | 49 % of control |  | 4 % of control | 62.2 nM |  | > 90 % of control |
| Cc1ccc(-c2cccc(C(=O)N3CC(C)OC(C)C3)c2)cc1F (stereo not drawn) [3d, (2,6-Dimethylmorpholino)(3’-fluoro-4’-methyl-[1,1’-biphenyl]-3-yl)methanone] | 44 % of control |  | 4 % of control |  |  | > 90 % of control |
| CC1CCN(C(=O)c2cccc(-c3ccc(Cl)cc3)c2)CC1 [5b, (4’-Chloro-[1,1’-biphenyl]-3-yl)(4-methylpiperidin-1-yl)methanone] | 58 % of control |  | 3 % of control |  |  | > 90 % of control |
| NC(=O)[C@@H]1CCCN1C(=O)c1cccc(-c2ccccc2Cl)c1 [6f, (S)-1-(2’-Chloro-[1,1’-biphenyl]-3-carbonyl)-pyrrolidine-2-carboxamide] | > 90 % of control |  | > 90 % of control |  | inactive | > 90 % of control |
